From patent US8445503B2, “Inhibitors of polo-like kinase” (Elan Pharmaceuticals, Inc., priority 2009, dated 2013) come the findings set out here.

Common to all, as to type: biochemical
One assay deals with GST-PLK1 (Homo sapiens, UniProt P53350). Kind of assay: PLK TR-FRET peptide assay, PLK1. As to conditions: read-out: Plk1 IC50. Background: In TR-FRET formats the signal depends on donor and acceptor labels being close together.
A further assay has as its target T1, GST-PLK2 (Homo sapiens, UniProt Q9NYY3).
T1 construct: purchased CarnaBio
Briefly: PLK TR-FRET peptide assay, PLK2. The conditions noted are these: for IC50: PLK TR-FRET peptide assay, GST-PLK2, read-out: Plk2 IC50.

The target in a further assay is T2, GST-PLK3 (Homo sapiens, UniProt Q9H4B4).
T2 construct: purchased CarnaBio
T2 sequence (Q9H4B4 whole entry): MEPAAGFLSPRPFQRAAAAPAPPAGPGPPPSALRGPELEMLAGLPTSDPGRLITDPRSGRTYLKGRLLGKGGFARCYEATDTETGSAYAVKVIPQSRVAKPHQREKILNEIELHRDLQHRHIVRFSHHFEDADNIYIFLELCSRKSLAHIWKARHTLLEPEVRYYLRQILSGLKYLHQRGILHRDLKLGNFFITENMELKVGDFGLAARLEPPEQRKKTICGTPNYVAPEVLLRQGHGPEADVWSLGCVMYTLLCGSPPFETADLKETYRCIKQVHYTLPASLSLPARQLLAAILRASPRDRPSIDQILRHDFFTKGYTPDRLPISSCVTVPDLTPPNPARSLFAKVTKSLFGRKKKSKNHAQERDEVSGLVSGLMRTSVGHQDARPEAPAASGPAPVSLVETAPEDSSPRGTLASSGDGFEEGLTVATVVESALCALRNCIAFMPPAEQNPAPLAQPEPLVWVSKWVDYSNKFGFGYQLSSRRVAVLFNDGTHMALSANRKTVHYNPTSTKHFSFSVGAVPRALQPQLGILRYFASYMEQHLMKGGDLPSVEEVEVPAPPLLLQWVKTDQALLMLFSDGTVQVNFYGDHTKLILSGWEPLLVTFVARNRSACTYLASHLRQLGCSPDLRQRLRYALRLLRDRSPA
Kind of assay: PLK TR-FRET peptide assay, PLK3. The conditions noted are these: PLK TR-FRET peptide assay, GST-PLK3; read-out: Plk3 IC50.

Broadly, the IC50 is the concentration that inhibits the measured activity by half.

T1 sequence (Q9NYY3 whole entry): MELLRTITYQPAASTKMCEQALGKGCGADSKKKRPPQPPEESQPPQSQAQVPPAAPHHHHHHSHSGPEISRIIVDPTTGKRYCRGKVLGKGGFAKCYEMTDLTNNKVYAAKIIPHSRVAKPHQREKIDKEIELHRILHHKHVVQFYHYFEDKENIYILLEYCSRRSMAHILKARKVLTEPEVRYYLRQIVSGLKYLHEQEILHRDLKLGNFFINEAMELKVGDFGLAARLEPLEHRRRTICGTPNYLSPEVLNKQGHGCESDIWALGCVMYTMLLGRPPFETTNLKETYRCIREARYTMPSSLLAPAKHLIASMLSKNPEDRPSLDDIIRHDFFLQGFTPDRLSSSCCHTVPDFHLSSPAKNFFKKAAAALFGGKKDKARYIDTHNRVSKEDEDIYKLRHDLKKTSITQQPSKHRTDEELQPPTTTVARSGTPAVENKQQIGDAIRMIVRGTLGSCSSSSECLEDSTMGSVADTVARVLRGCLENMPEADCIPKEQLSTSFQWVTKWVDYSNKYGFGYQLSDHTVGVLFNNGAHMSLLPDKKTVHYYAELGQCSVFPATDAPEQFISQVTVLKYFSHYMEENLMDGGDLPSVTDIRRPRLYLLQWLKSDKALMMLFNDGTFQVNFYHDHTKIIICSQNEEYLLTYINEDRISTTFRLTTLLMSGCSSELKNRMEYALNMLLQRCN
Chain of GST-PLK1 (P53350 whole entry): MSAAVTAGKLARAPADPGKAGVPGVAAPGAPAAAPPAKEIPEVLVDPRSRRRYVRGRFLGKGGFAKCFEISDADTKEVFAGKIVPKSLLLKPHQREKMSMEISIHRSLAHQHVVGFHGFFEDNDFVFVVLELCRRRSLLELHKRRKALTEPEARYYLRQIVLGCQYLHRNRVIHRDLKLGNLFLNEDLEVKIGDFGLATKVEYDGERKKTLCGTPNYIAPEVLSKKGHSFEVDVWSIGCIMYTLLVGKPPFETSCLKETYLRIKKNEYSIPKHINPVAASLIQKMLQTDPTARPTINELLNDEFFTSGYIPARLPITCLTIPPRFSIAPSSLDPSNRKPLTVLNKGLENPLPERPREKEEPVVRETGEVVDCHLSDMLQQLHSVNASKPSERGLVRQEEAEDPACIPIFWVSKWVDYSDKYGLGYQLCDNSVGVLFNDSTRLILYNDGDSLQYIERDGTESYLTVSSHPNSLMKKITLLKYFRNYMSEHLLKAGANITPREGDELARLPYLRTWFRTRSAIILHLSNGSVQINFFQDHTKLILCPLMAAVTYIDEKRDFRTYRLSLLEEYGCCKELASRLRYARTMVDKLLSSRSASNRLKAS

Consider `CC[C@@H]1C(=O)N(C)c2cnc(-n3cnc(C(=O)OC)c3)nc2N1C1CCCC1` [Example 38, (R)-methyl 1-(8-cyclopentyl-7-ethyl-5-methyl-6-oxo-5,6,7,8-tetrahydropteridin-2-yl)-1H-imidazole-4-carboxylate], for which the half-inhibitory concentration (IC50) at GST-PLK1 was < 1 µM; on GST-PLK2, 1 to 10 µM; at GST-PLK3, 1 to 10 µM.
With `CC[C@@H]1C(=O)N(C)c2cnc(-n3cnc(C(N)=O)c3)nc2N1C1CCCC1` [Example 69, (R)-1-(8-cyclopentyl-7-ethyl-5-methyl-6-oxo-5,6,7,8-tetrahydropteridin-2-yl)-1H-imidazole-4-carboxamide], the IC50 was < 1 µM on GST-PLK1, < 1 µM at GST-PLK2 and 1 to 10 µM at GST-PLK3.
For `CC[C@@H]1C(=O)N(C)c2cnc(-n3ncnc3-c3ccn[nH]3)nc2N1C(C)C` [Example 327, (R)-2-(5-(1H-pyrazol-5-yl)-1H-1,2,4-triazol-1-yl)-7-ethyl-8-isopropyl-5-methyl-7,8-dihydropteridin-6(5H)-one], the IC50 is < 1 µM at GST-PLK1, < 1 µM at GST-PLK2 and 1 to 10 µM at GST-PLK3.
Consider `CC[C@@]12CCCN1c1nc(-n3ccnc3-c3cccnc3)ncc1N(C)C2=O` [Example 137, (S)-6a-ethyl-5-methyl-2-(2-(pyridin-3-yl)-1H-imidazol-1-yl)-6a,7,8,9-tetrahydropyrrolo[2,1-h]pteridin-6(5H)-one], for which the values for the 50% inhibitory concentration (IC50) on GST-PLK1, at GST-PLK2 and at GST-PLK3 were > 50 µM, 1 to 10 µM and > 50 µM, respectively.
Turning to `CC[C@@H]1C(=O)N(C)c2cnc(-n3ccnc3N3CCOC3=O)nc2N1C1CCCC1` [Example 78, (R)-3-(1-(8-cyclopentyl-7-ethyl-5-methyl-6-oxo-5,6,7,8-tetrahydropteridin-2-yl)-1H-imidazol-2-yl)oxazolidin-2-one], the figures for the half-maximal inhibitory concentration (IC50) on GST-PLK1, at GST-PLK2 and at GST-PLK3 were 1 to 10 µM, < 1 µM and 10 to 50 µM, respectively.
For `CC[C@@]12COCCN1c1nc(-c3snnc3-c3ccc(F)cn3)ncc1N(C)C2=O` [Example 415, (S)-6a-ethyl-2-(4-(5-fluoropyridin-2-yl)-1,2,3-thiadiazol-5-yl)-5-methyl-6a,7,9,10-tetrahydro-[1,4]oxazino[3,4-h]pteridin-6(5H)-one], in that order: > 50 µM, 1 to 10 µM and > 50 µM.
For `CC[C@@H]1C(=O)N(C)c2cnc(-n3ccnc3-c3ccncc3)nc2N1C1CCC1` [Example 81, (R)-8-cyclobutyl-7-ethyl-5-methyl-2-(2-(pyridin-4-yl)-1H-imidazol-1-yl)-7,8-dihydropteridin-6(5H)-one], the IC50 at GST-PLK1 is 1 to 10 µM; on GST-PLK2, < 1 µM; at GST-PLK3, 10 to 50 µM.
Turning to `CC[C@@H]1C(=O)N(C)c2cnc(-n3ccc(C(=O)NC)n3)nc2N1C1CCCC1` [Example 58, (R)-1-(8-cyclopentyl-7-ethyl-5-methyl-6-oxo-5,6,7,8-tetrahydropteridin-2-yl)-N-methyl-1H-pyrazole-3-carboxamide], the figures for the IC50 at GST-PLK1, on GST-PLK2 and at GST-PLK3 were 1 to 10 µM, < 1 µM and > 50 µM, respectively.
Taken in the same sequence, the figures for `CC[C@H]1C(=O)N(C)c2cnc(-n3ccnc3-c3ccc(F)cc3)nc2N1c1ccn(C)n1` [Example 408, (S)-7-ethyl-2-(2-(4-fluorophenyl)-1H-imidazol-1-yl)-5-methyl-8-(1-methyl-1H-pyrazol-3-yl)-7,8-dihydropteridin-6(5H)-one] were > 50 µM, 1 to 10 µM and > 50 µM.
Taken in the same sequence, the figures for `CC[C@]12COCCN1c1nc(-c3snnc3-c3ccc(F)cn3)ncc1N(C)C2=O` [Example 416, (R)-6a-ethyl-2-(4-(5-fluoropyridin-2-yl)-1,2,3-thiadiazol-5-yl)-5-methyl-6a,7,9,10-tetrahydro-[1,4]oxazino[3,4-h]pteridin-6(5H)-one] were > 50 µM, 10 to 50 µM and > 50 µM.
Turning to `CC[C@@]12CCCN1c1nc(-n3ccnc3-c3ccccn3)ncc1N(C)C2=O` [Example 145, (S)-6a-ethyl-5-methyl-2-(2-(pyridin-2-yl)-1H-imidazol-1-yl)-6a,7,8,9-tetrahydropyrrolo[2,1-h]pteridin-6(5H)-one], the IC50 on GST-PLK1 was 10 to 50 µM; on GST-PLK2, 1 to 10 µM; on GST-PLK3, 10 to 50 µM.
With `CC[C@@H]1C(=O)N(C)c2cnc(-n3cnc(CCN)c3)nc2N1C1CCCC1` [Example 62, (R)-2-(4-(2-aminoethyl)-1H-imidazol-1-yl)-8-cyclopentyl-7-ethyl-5-methyl-7,8-dihydropteridin-6(5H)-one], the figures for the concentration for half-maximal inhibition (IC50) at GST-PLK1, on GST-PLK2 and on GST-PLK3 were 10 to 50 µM, < 1 µM and 10 to 50 µM, respectively.
Turning to `CC[C@@H]1C(=O)N(C)c2cnc(-n3cnc(CC#N)c3)nc2N1C1CCCC1` [Example 35, (R)-2-(1-(8-cyclopentyl-7-ethyl-5-methyl-6-oxo-5,6,7,8-tetrahydropteridin-2-yl)-1H-imidazol-4-yl)acetonitrile], the IC50 at GST-PLK1 was 1 to 10 µM; at GST-PLK2, < 1 µM; at GST-PLK3 it was 10 to 50 µM.
For the molecule `CC[C@]12COCCN1c1nc(-c3cnoc3-c3ccccc3)ncc1N(C)C2=O` [Example 414, (R)-6a-ethyl-5-methyl-2-(5-phenylisoxazol-4-yl)-6a,7,9,10-tetrahydro-[1,4]oxazino[3,4-h]pteridin-6(5H)-one], the IC50 on GST-PLK1, at GST-PLK2 and at GST-PLK3 was > 50 µM in each case.
`CC[C@@]12CN(C)CCN1c1nc(-n3ccnc3-c3ccccc3)ncc1N(C)C2=O` [Example 374, (S)-6a-ethyl-5,8-dimethyl-2-(2-phenyl-1H-imidazol-1-yl)-'7,8,9,10-tetrahydro-5H-pyrazino[2,1-h]pteridin-6(6aH)-one]: the IC50 at GST-PLK1 was > 50 µM; at GST-PLK2 it was < 1 µM; at GST-PLK3 it was 10 to 50 µM. Also, the “PLK2 activity relative to the opposite enantiomer / other isomer” value on GST-PLK2 (comparison of resolved enantiomers, used to assign absolute configuration) is “more active compound”.
For the molecule `CC[C@@H]1C(=O)N(C)c2cnc(-n3ccnc3)nc2N1C1CCC1` [Example 111, (R)-8-cyclobutyl-7-ethyl-2-(1H-imidazol-1-yl)-5-methyl-7,8-dihydropteridin-6(5H)-one], the values for the IC50 on GST-PLK1, at GST-PLK2 and at GST-PLK3 were 1 to 10 µM, < 1 µM and 10 to 50 µM, respectively.
For `CCC1C(=O)N(C)c2cnc(-n3ccnc3-c3ccccc3)nc2N1NC(=O)OC(C)(C)C` (stereo not shown) [Example 275, tert-butyl 7-ethyl-5-methyl-6-oxo-2-(2-phenyl-1H-imidazol-1-yl)-6,7-dihydropteridin-8(5H)-ylcarbamate], in that order: > 50 µM, 10 to 50 µM and > 50 µM.
Taken in the same sequence, the figures for `CC[C@]12COCCN1c1nc(-n3ccnc3-c3ccc(F)cc3F)ncc1N(C)C2=O` [Example 377, (R)-2-(2-(2,4-difluorophenyl)-1H-imidazol-1-yl)-6a-ethyl-5-methyl-6a,7,9,10-tetrahydro-[1,4]oxazino[3,4-h]pteridin-6(5H)-one] were > 50 µM, 10 to 50 µM and > 50 µM.
Turning to `CC[C@@H]1C(=O)N(C)c2cnc(-c3cn[nH]c3-c3ccccc3)nc2N1C1CCCC1` [Example 134, (R)-8-cyclopentyl-7-ethyl-5-methyl-2-(5-phenyl-1H-pyrazol-4-yl)-7,8-dihydropteridin-6(5H)-one], the half-maximal inhibitory concentration (IC50) on GST-PLK1, at GST-PLK2 and at GST-PLK3 was < 1 µM each time.
Consider `CC[C@@H]1C(=O)N(C)c2cnc(-n3ccnc3-c3ccncc3)nc2N1C1CC1` [Example 147, (R)-8-cyclopropyl-7-ethyl-5-methyl-2-(2-(pyridin-4-yl)-1H-imidazol-1-yl)-7,8-dihydropteridin-6(5H)-one], for which the results for the IC50 at GST-PLK1, on GST-PLK2 and on GST-PLK3 were > 50 µM, 1 to 10 µM and > 50 µM, respectively.
For `CC[C@@H]1C(=O)N(C)c2cnc(-n3ccnc3-c3nccs3)nc2N1C1CCOC1` (stereo partly drawn) [Example 221, (7R)-7-ethyl-5-methyl-8-(tetrahydrofuran-3-yl)-2-(2-(thiazol-2-yl)-1H-imidazol-1-yl)-7,8-dihydropteridin-6(5H)-one], the IC50 on GST-PLK1 was 1 to 10 µM; on GST-PLK2 it was < 1 µM; at GST-PLK3, 10 to 50 µM.
With `CC[C@@H]1C(=O)N(C)c2cnc(-n3ccnc3-c3cnccn3)nc2N1C1CCOCC1` [Example 140, (R)-7-ethyl-5-methyl-2-(2-(pyrazin-2-yl)-1H-imidazol-1-yl)-8-(tetrahydro-2H-pyran-4-yl)-7,8-dihydropteridin-6(5H)-one], the half-maximal inhibitory concentration (IC50) at GST-PLK1 was 1 to 10 µM; on GST-PLK2 it was < 1 µM; at GST-PLK3, > 50 µM.
As to `CC[C@@]12CCCN1c1nc(-n3ccnc3-c3cnccn3)ncc1N(C)C2=O` [Example 144, (S)-6a-ethyl-5-methyl-2-(2-(pyrazin-2-yl)-1H-imidazol-1-yl)-6a,7,8,9-tetrahydropyrrolo[2,1-h]pteridin-6(5H)-one], the results for the IC50 at GST-PLK1, at GST-PLK2 and at GST-PLK3 were > 50 µM, 1 to 10 µM and > 50 µM, respectively.
As to `CC[C@@H]1C(=O)N(C)c2cnc(-n3ccc(C(N)=O)n3)nc2N1C1CCCC1` [Example 63, (R)-1-(8-cyclopentyl-7-ethyl-5-methyl-6-oxo-5,6,7,8-tetrahydropteridin-2-yl)-1H-pyrazole-3-carboxamide], the values for the IC50 on GST-PLK1, at GST-PLK2 and on GST-PLK3 were 1 to 10 µM, < 1 µM and 1 to 10 µM, respectively.
For `CC[C@@H]1C(=O)N(C)c2cnc(-n3ccnc3-c3ccc(F)cc3)nc2N1C1COC1` [Example 328, (R)-7-ethyl-2-(2-(4-fluorophenyl)-1H-imidazol-1-yl)-5-methyl-8-(oxetan-3-yl)-7,8-dihydropteridin-6(5H)-one], the IC50 was > 50 µM on GST-PLK1, 1 to 10 µM on GST-PLK2 and > 50 µM on GST-PLK3.
For `CC[C@@H]1C(=O)N(C)c2cnc(-n3ccnc3)nc2N1C1CCOC1` (single isomer, unassigned) [Example 299], the IC50 at GST-PLK1 was 1 to 10 µM; on GST-PLK2 it was < 1 µM; at GST-PLK3, 10 to 50 µM.
